Results from PubChem BioAssay AID1918994 (Molecular Pharmacology Branch, DTP, NCI, 2023).
Where “and” joins values, the source holds several entries; their conditions need not be identical. Equal values may be shown once.

System: 292921-168-R-J2-PDC complex spheroid growth
Experiment: Anticancer human tumor 292921-168-R-J2-PDC patient-derived pancreatic carcinoma cell line growth inhibition [AhR]
Conditions: for viability, T/C: stronger effect = lower value
Text: Multicellular complex tumor spheroid response to aryl hydrocarbon receptor antagonists in combination with a variety of drugs and investigational agents in selected tumor cell lines
The current study was undertaken to assess response to aryl hydrocarbon receptor antagonists in combination with standard-of-care drugs and investigational agents in solid tumor complex spheroid models. Complex spheroids include a stromal component modeled by human endothelial cells (HUVEC) and fibroblasts modeled by human mesenchymal stem cells (MSCs). The concentration ranges selected for each drug and investigational agent were based upon clinically achievable concentrations if the clinical Cmax of the agent was known.
Compounds. The drugs and investigational agents: BAY 2416964 (NSC825713), GNF351 (NSC835774), CH-223191 (NSC835775), CPI-455 (NSC825282), aza-TdCyd (NSC777586), decitabine (NSC127716), belinostat (NSC758774), entinostat (NSC756642), pevonedistat (NSC761192), tazemetostat (NSC777109), talazoparib (NSC765396), olaparib (NSC753686), selinexor (NSC780203), nedisertib (M3814, NSC802822), bortezomib (NSC756655), venetoclax (NSC766270), doxorubicin (NSC123127), elimusertib (BAY189344, NSC800525), ceralasertib (AZD6738, NSC777638), TAK-243 (NSC785004), alisertib (NSC759677), etoposide (NSC141540), topotecan (NSC609699), eribulin (NSC707389), gemcitabine (NSC613327), carboplatin (NSC241240), cisplatin (NSC119875), and SN-38 (NSC673596) were obtained from the National Cancer Institute (NCI) Developmental Therapeutics Program Chemical Repository (32). The FDA-approved anticancer drug set is available from the Developmental Therapeutics Program at https://dtp.cancer.gov/organization/dscb/obtaining/available plates.htm. […] The stock solutions were prepared in dimethyl sulfoxide (DMSO, Sigma-Aldrich, St. Louis, MO, cat. D2650), except for the platinum compounds which were prepared in saline (Quality Biological, Gaithersburg, MD, cat. 114-055-101), at 800-fold the tested concentration and stored at -70 degrees C prior to their use. All drugs and investigational agents were tested over a range starting from a high concentration at or near the clinical Cmax and decreasing in half-log increments. If the clinical Cmax for an agent had not been determined, the highest concentration tested was 10 microM (Table 1).
Cell Culture. All cells were maintained in an incubator at 37 degrees C and 5% CO2 with 95% humidity. The PDC lines were cultured according to standard operating procedures established by the NCI PDMR (https://pdmr.cancer.gov). Briefly, all PDCs were thawed and cultured in Matrigel-coated flasks prepared with a working solution of 1X Ham's F-12 nutrient mix, without supplementation (Invitrogen, Waltham, MA, cat. 11765054), 100 U/mL penicillin-streptomycin (Invitrogen, cat. 15140122), and 2.5% Matrigel (Corning Inc., Corning, NY, cat. 354248) for the first three passages. All PDCs were cultured in complete DMEM/F-12 media containing advanced DMEM/F-12 (Invitrogen, cat. 12634028), 4.9% defined fetal bovine serum, heat inactivated (HyClone Laboratories Inc., Logan, UT, cat. SH30070.03HI), 389 ng/mL hydrocortisone (Sigma-Aldrich, cat. H4001), 9.7 ng/mL human EGF recombinant protein (Invitrogen, cat. PHG0313), 23.4 microg/mL adenine (Sigma-Aldrich, cat. A2786), 97.3 U/mL penicillin-streptomycin (Invitrogen, cat. 15140122), 1.9 mM L-glutamine (Invitrogen, cat. 25030081), and 9.7 microM Y-27632 dihydrochloride (Tocris Bioscience, Bristol, United Kingdom, cat. 1254). The PDCs were cultured in complete DMEM/F12 media without 10 microM Y-27632 dihydrochloride for at least two passages prior to the screen. The established cell lines NCI-H1341 and […] were cultured in DMEM/F-12, HEPES (Invitrogen, cat. 11330032), 5% defined fetal bovine serum (HyClone Laboratories Inc., cat. SH30070.03), ITS premix universal culture supplement [insulin (5 microg/mL), transferrin (5 microg/mL), and selenious acid (5 ng/mL)] […]
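Also: spheroids exposed to compounds for seven days after three days of growth.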

Row | IC50 (curve of compound) | SMILES | viability, T/C (compound 0.0316 µM) | viability, T/C (compound 0.1 µM) | viability, T/C (compound 0.316 µM) | viability, T/C (compound 1 µM) | viability, T/C (compound 3.16 µM) | viability, T/C (compound 10 µM) | further results
1 | 6730 nM and 6620 nM and 6410 nM | CC1(C)CCC(CN2CCN(c3ccc(C(=O)NS(=O)(=O)c4ccc(NCC5CCOCC5)c([N+](=O)[O-])c4)c(Oc4cnc5[nH]ccc5c4)c3)CC2)=C(c2ccc(Cl)cc2)C1 | 104% and 92.6% and 102% | 106% and 105% and 104% | 108% and 109% and 97.2% | 106% and 116% and 102% | 102% and 109% and 94% | 22.7% and 18.6% and 22.2% | –
2 | 58 nM and 54.7 nM and 45.7 nM | CC1COCCN1c1cc(-c2ccnn2C)c2ccnc(-c3ccn[nH]3)c2n1 (stereo not given) | 65.1% and 66.1% and 56.9% | 36.3% and 32.1% and 32.4% | 23.2% and 19.6% and 21.7% | 19.2% and 17.7% and 17.8% | – | – | viability, T/C (compound 0.00316 µM): 99.6% and 103% and 96.5%; viability, T/C (compound 0.01 µM): 90.4% and 97.9% and 92.8%
3 | 4300 nM and 2860 nM and 3080 nM | CC1COCCN1c1cc(C2(S(C)(=N)=O)CC2)nc(-c2ccnc3[nH]ccc23)n1 (stereo not given) | 98% and 110% (2×) | 93.9% and 96.9% and 110% | 89.8% and 90.3% and 106% | 89.2% and 77.6% and 79.8% | 58% and 44.7% and 50.7% | 27.7% (2×) and 21.3% | –
4 | > 3000 nM | CCN(c1cc(-c2ccc(CN3CCOCC3)cc2)cc(C(=O)NCc2c(C)cc(C)[nH]c2=O)c1C)C1CCOCC1 | – | – | – | – | – | – | viability, T/C (compound 0.00949 µM): 98.8% and 103% and 105%; viability, T/C (compound 0.03 µM): 106% and 107% and 104%; viability, T/C (compound 0.0949 µM): 109% and 96.8% and 96.2%; viability, T/C (compound 0.3 µM): 100% and 97.3% and 98.5%; viability, T/C (compound 0.949 µM): 99.8% and 89.8% and 102%; viability, T/C (compound 3 µM): 93.2% and 91% and 90.2%
5 | 45.6 nM and 30.7 nM and 24.4 nM | CC[C@@]1(O)C(=O)OCc2c1cc1n(c2=O)Cc2cc3c(CN(C)C)c(O)ccc3nc2-1 | 59.3% and 48.2% and 41.8% | 28.4% and 23.3% and 20.4% | – | – | – | – | viability, T/C (compound 0.000316 µM): 110% and 102% and 99.3%; viability, T/C (compound 0.001 µM): 103% and 107% and 96.5%; viability, T/C (compound 0.00316 µM): 94.2% and 93.7% and 90.6%; viability, T/C (compound 0.01 µM): 83.7% and 86.5% and 77.4%
6 | 3.42 nM and 4.29 nM and 1.79 nM | CCc1c2c(nc3ccc(O)cc13)-c1cc3c(c(=O)n1C2)COC(=O)[C@]3(O)CC | – | – | – | – | – | – | viability, T/C (compound 0.000949 µM): 72.1% and 79.3% and 54.5%; viability, T/C (compound 0.003 µM): 53.6% and 63.4% and 47.4%; viability, T/C (compound 0.00949 µM): 25.5% and 20.2% and 23.6%; viability, T/C (compound 0.03 µM): 12.2% and 9.77% and 13%; viability, T/C (compound 0.0949 µM): 6.69% and 4.55% and 7%; viability, T/C (compound 0.3 µM): 3.7% and 2.95% and 3.56%

Further lines, the compound ahead of its results:

Row | SMILES | IC50 (curve of compound) | viability, T/C (compound 0.0316 µM) | viability, T/C (compound 0.1 µM) | viability, T/C (compound 0.316 µM) | viability, T/C (compound 1 µM) | viability, T/C (compound 3.16 µM) | viability, T/C (compound 10 µM) | further results
7 | CC(C)CC(NC(=O)C(Cc1ccccc1)NC(=O)c1cnccn1)B(O)O (stereo not given) | 10.2 nM and 6.92 nM and 5.94 nM | – | – | – | – | – | – | viability, T/C (compound 0.000949 µM): 106% and 109% and 104%; viability, T/C (compound 0.003 µM): 116% and 121% and 106%; viability, T/C (compound 0.00949 µM): 53.1% and 25.4% and 12.2%; viability, T/C (compound 0.03 µM): 3.87% and 2.27% and 1.64%; viability, T/C (compound 0.0949 µM): 0.72% and 0.67% and 0.85%; viability, T/C (compound 0.3 µM): 0.4% and 0.5% and 2.3%
8 | CC(C)c1c(-c2ccccc2)nc2c(C#N)c[nH]n2c1=O | > 10000 nM | 113% and 103% (2×) | 117% and 104% and 107% | 105% (2×) and 106% | 115% and 91% and 98.9% | 106% and 102% and 99.9% | 95.3% and 96% and 107% | –
9 | CC(CO)NC(=O)c1cc(-c2ccc(Cl)cc2)nn(-c2cnn(C)c2)c1=O (stereo not given) | – | – | 102% [middle of 21 runs] | 98.8% [middle of 21 runs] | 99.2% [middle of 20 runs] | 88.8% [middle of 19 runs] | 70.5% [middle of 19 runs] | IC50 (compound alone, run of 05/31/2022): > 10000 nM
10 | COc1cc(C2c3cc4c(cc3C(OC3OC5COC(C)OC5C(O)C3O)C3COC(=O)C23)OCO4)cc(OC)c1O (stereo not given) | 768 nM and 710 nM and 449 nM | 96% and 96.6% and 96.5% | 93.8% and 79.8% and 87.8% | 66.4% and 73% and 56% | 43.2% and 38.8% and 31.6% | 29% and 26% and 19.7% | 13.7% and 15.4% and 10.6% | –
11 | COc1cc(Nc2ncc3c(n2)-c2ccc(Cl)cc2C(c2c(F)cccc2OC)=NC3)ccc1C(=O)O | – | 53.9% and 45.2% and 56.9% | 49.2% and 45% and 39.5% | 49.9% and 53.6% and 45.8% | 57.9% and 51.2% and 43% | 49.8% and 40.5% and 41.5% | 41.7% and 31.2% and 30.7% | –
